# Results reported in patent US9796907B2, “Invert emulsion gravel pack fluid and method” (Halliburton Energy Services, Inc., priority 2013, dated 2017).
# Tested on: marine juvenile fish Cyprinodont varieties
# Test: Ecotoxicity to marine juvenile fish
# Assay type: in vivo
# Excerpt: In addition, the fluid of the disclosure should have an acceptable health, safety, and environmental profile. The dimer diamine (or fatty acid dimer diamine) and polyurea components comprising the suspension agent are environmentally compatible.
structure (smiles),measurement,value
"CCCCCCCCCC(CCCCCCCCN)C(CCCCCCCC)CCCCCCCCCN (stereo not shown) [fatty acid dimer diamine, C36 fatty dimer diamine]",ecotoxicity to marine juvenile fish,low ecotoxicity
